Values after ≈ are worked out from the molar mass of the structure shown. Read-outs that look alike come from different tables or passages of the source.
Key:
Assay type in all cases: cell-based
[1] = test system: Proteus morganii A9553; assay: MIC by serial two-fold agar dilution, P. morganii A9553; details: Morganella morganii, A9553
Method: (§1) The minimum inhibitory concentrations (MIC) of Bu-2659A, B, C, D and E were determined for a variety of gram-positive and gram-negative bacteria by the serial two-fold agar dilution method using the Steer's multi-inoculating apparatus. The inoculum was standardized as a 10^4 dilution of an overnight culture of the test organisms in Heart Infusion Broth (Difco). […] Reference antibiotics utilized in these tests included commercially available neomycin as well as its components, neomycins B and C [as used herein, the term "neomycin" means the commercial product containing neomycins B and C at an approximate ratio of 7:3], paromomycin [the commercial product containing >90% of paromomycin I and <10% of paromomycin II] and ribostamycin.

[2] = test system: Bacillus subtilis PCI 219; assay: MIC by serial two-fold agar dilution, B. subtilis PCI 219; details: Bacillus subtilis, PCI219
Method: as §1

[3] = test system: Staphylococcus aureus D136; assay: MIC by serial two-fold agar dilution, S. aureus D136; details: Staphylococcus aureus, D136
Method: as §1

[4] = test system: Escherichia coli ML 1630; assay: MIC, aminoglycoside-resistant E. coli ML 1630; details: Escherichia coli, ML1630; Table 9; inactivating enzyme APH(3')-I; Mueller-Hinton agar; read-out: MIC
Method: as §1

[5] = test system: Escherichia coli JR66/W677; assay: MIC, aminoglycoside-resistant E. coli JR66/W677; details: Escherichia coli, JR66/W677
Method: as §1

[6] = test system: Staphylococcus aureus A20239; assay: MIC, aminoglycoside-resistant S. aureus A20239; details: Staphylococcus aureus, A20239
Method: as §1

[7] = test system: Proteus rettgeri A15167; assay: MIC by serial two-fold agar dilution, P. rettgeri A15167; details: Providencia rettgeri, A15167
Method: as §1

[8] = test system: Escherichia coli JR35/C600; assay: MIC, aminoglycoside-resistant E. coli JR35/C600; details: Escherichia coli, JR35/C600
Method: as §1

[9] = test system: Escherichia coli A20732; assay: MIC, aminoglycoside-resistant E. coli A20732; details: Escherichia coli, A20732; Table 9; inactivating enzyme ANT(2"); Mueller-Hinton agar; read-out: MIC
Method: as §1

[10] = test system: Bacillus brevis IFO 12334; assay: MIC, aminoglycoside-resistant B. brevis IFO 12334; details: Brevibacillus brevis, IFO12334
Method: as §1

[11] = test system: Escherichia coli A20107; assay: MIC, aminoglycoside-resistant E. coli A20107; details: Escherichia coli, A20107; Table 9; inactivating enzyme APH(3')-II; Mueller-Hinton agar; read-out: MIC
Method: as §1

[12] = test system: Enterobacter cloacae A20364; assay: MIC, aminoglycoside-resistant E. cloacae A20364; details: Enterobacter cloacae, A20364
Method: as §1

[13] = test system: Proteus mirabilis A9906; assay: MIC by serial two-fold agar dilution, P. mirabilis A9906; details: Proteus mirabilis, A9906
Method: as §1

[14] = test system: Proteus vulgaris A9436; assay: MIC by serial two-fold agar dilution, P. vulgaris A9436; details: Proteus vulgaris, A9436
Method: as §1

[15] = test system: Micrococcus luteus PCI 1001; assay: MIC by serial two-fold agar dilution, M. luteus PCI 1001; details: Micrococcus luteus, PCI1001
Method: as §1

[16] = test system: Pseudomonas aeruginosa D15; assay: MIC by serial two-fold agar dilution, P. aeruginosa D15; details: Pseudomonas aeruginosa, D15
Method: as §1

[17] = test system: Escherichia coli NR79/W677; assay: MIC, aminoglycoside-resistant E. coli NR79/W677; details: Escherichia coli, NR79/W677
Method: as §1

[18] = test system: Escherichia coli Juhl; assay: MIC by serial two-fold agar dilution, E. coli Juhl; details: Escherichia coli
Method: as §1

[19] = test system: Micrococcus flavus D12; assay: MIC by serial two-fold agar dilution, M. flavus D12; details: Micrococcus flavus, D12
Method: as §1

[20] = test system: Pseudomonas aeruginosa A20601; assay: MIC, aminoglycoside-resistant P. aeruginosa A20601; details: Pseudomonas aeruginosa, A20601
Method: as §1

[21] = test system: Escherichia coli JR88; assay: MIC, aminoglycoside-resistant E. coli JR88; details: Escherichia coli, JR88
Method: as §1

[22] = test system: Staphylococcus aureus 209P; assay: MIC by serial two-fold agar dilution, S. aureus 209P; details: Staphylococcus aureus, 209P
Method: as §1

[23] = test system: Staphylococcus aureus Smith; assay: MIC by serial two-fold agar dilution, S. aureus Smith; details: Staphylococcus aureus
Method: as §1

[24] = test system: Pseudomonas aeruginosa A20896; assay: MIC, aminoglycoside-resistant P. aeruginosa A20896; details: Pseudomonas aeruginosa, A20896
Method: as §1

[25] = test system: Serratia marcescens A20019; assay: MIC by serial two-fold agar dilution, S. marcescens A20019; details: Serratia marcescens, A20019
Method: as §1

[26] = test system: Escherichia coli NIHJ; assay: MIC by serial two-fold agar dilution, E. coli NIHJ; details: Escherichia coli
Method: as §1

[27] = test system: Klebsiella pneumoniae D11; assay: MIC by serial two-fold agar dilution, K. pneumoniae D11; details: Klebsiella pneumoniae, D11
Method: as §1

[28] = test system: Pseudomonas aeruginosa A9930; assay: MIC by serial two-fold agar dilution, P. aeruginosa A9930; details: Pseudomonas aeruginosa, A9930
Method: as §1

[29] = test system: Proteus mirabilis A9554; assay: MIC by serial two-fold agar dilution, P. mirabilis A9554; details: Proteus mirabilis, A9554
Method: as §1

[30] = test system: gram-positive and gram-negative bacteria; assay: In vitro antibacterial spectra (MIC), overall comparison, Table 7; details: Table 7 organisms; as active as Bu-2659A
Method: as §1

[31] = Table 7, Mueller-Hinton agar, read-out: MIC

`NC[C@@H]1O[C@H](O[C@H]2[C@@H](O)[C@H](O[C@@H]3[C@@H](O)[C@H](N)C[C@H](N)[C@H]3O[C@H]3O[C@H](CO)[C@@H](O)[C@H](O)[C@H]3N)O[C@@H]2CO)[C@H](N)[C@@H](O)[C@@H]1O` [Paromomycin, paromomycin] was tested, and the MIC [1] was 1.6 mg/L (≈ 2.6 µM), the MIC [2] was 0.2 mg/L (≈ 0.325 µM) and the MIC [3] was 0.8 mg/L (≈ 1.3 µM). It also gave an MIC [4] greater than 100 mg/L, an MIC [5] greater than 100 mg/L and an MIC [6] greater than 100 mg/L. For the same molecule, the MIC [7] was 1.6 mg/L (≈ 2.6 µM), the MIC [8] was greater than 100 mg/L and the MIC [9] was 1.6 mg/L (≈ 2.6 µM). It also gave an MIC [10] greater than 100 mg/L, an MIC [11] greater than 100 mg/L and an MIC [12] greater than 100 mg/L. The MIC [13] was 0.8 mg/L (≈ 1.3 µM), the MIC [14] was 0.8 mg/L (≈ 1.3 µM) and the MIC [15] was 6.3 mg/L (≈ 10.2 µM). The MIC [16] was 50 mg/L (≈ 81.2 µM), the MIC [17] was greater than 100 mg/L and the MIC [18] was 12.5 mg/L (≈ 20.3 µM). It also gave an MIC [19] of 12.5 mg/L (≈ 20.3 µM), an MIC [20] greater than 100 mg/L and an MIC [21] of 1.6 mg/L (≈ 2.6 µM). The MIC [22] was 0.8 mg/L (≈ 1.3 µM), the MIC [23] was 1.6 mg/L (≈ 2.6 µM) and the MIC [24] was greater than 100 mg/L. For the same molecule, the MIC [25] was 1.6 mg/L (≈ 2.6 µM), the MIC [26, 31] was 3.1 mg/L (≈ 5.04 µM) and the MIC [27] was 0.4 mg/L (≈ 0.65 µM). The MIC [28] was 12.5 mg/L (≈ 20.3 µM) and the MIC [29] was 0.8 mg/L (≈ 1.3 µM).

Work on `NC[C@@H]1O[C@H](O[C@H]2[C@@H](O)[C@H](O[C@@H]3[C@@H](O)[C@H](O)C[C@H](N)[C@H]3O[C@H]3O[C@H](CO)[C@@H](O)[C@H](O)[C@H]3N)O[C@@H]2CO)[C@H](N)[C@@H](O)[C@@H]1O` [Bu-2659C, 1-deamino-1-hydroxyparomomycin I] yielded an MIC [1, 31] of 6.3 mg/L (≈ 10.2 µM), an MIC [2, 31] of 0.8 mg/L (≈ 1.3 µM) and an MIC [3, 31] of 6.3 mg/L (≈ 10.2 µM). It also gave an MIC [7, 31] of 3.1 mg/L (≈ 5.03 µM), an MIC [13, 31] of 3.1 mg/L (≈ 5.03 µM) and an MIC [14, 31] of 1.6 mg/L (≈ 2.59 µM). It also gave an MIC [15, 31] greater than 100 mg/L, an MIC [16, 31] of 25 mg/L (≈ 40.5 µM) and an MIC [18, 31] of 25 mg/L (≈ 40.5 µM). The MIC [19, 31] was greater than 100 mg/L, the MIC [22, 31] was 3.1 mg/L (≈ 5.03 µM) and the MIC [23, 31] was 6.3 mg/L (≈ 10.2 µM). The MIC [25, 31] was 6.3 mg/L (≈ 10.2 µM), the “activity relative to Bu-2659A” value [30] was “approximately 1/4” and the MIC [26, 31] was 6.3 mg/L (≈ 10.2 µM). The MIC [27, 31] was 1.6 mg/L (≈ 2.59 µM), the MIC [28, 31] was 12.5 mg/L (≈ 20.3 µM) and the MIC [29, 31] was 3.1 mg/L (≈ 5.03 µM).

In the case of `NC[C@H]1O[C@H](O[C@H]2[C@H](O[C@@H]3O[C@H](CO)[C@@H](O)[C@H]3O)[C@@H](O)[C@H](N)C[C@@H]2N)[C@H](N)[C@@H](O)[C@@H]1O` [Ribostamycin, ribostamycin], the MIC [1] is reported as 1.6 mg/L (≈ 3.52 µM), the MIC [2] is reported as 0.4 mg/L (≈ 0.88 µM) and the MIC [3] is reported as 3.1 mg/L (≈ 6.82 µM). For the same molecule, the MIC [4] was greater than 100 mg/L, the MIC [5] was greater than 100 mg/L and the MIC ([6]; Table 9, inactivating enzyme APH(3')-I,II, Mueller-Hinton agar, read-out: MIC) was greater than 100 mg/L. For the same molecule, the MIC [7] was 0.8 mg/L (≈ 1.76 µM), the MIC [8] was greater than 100 mg/L and the MIC [9] was 1.6 mg/L (≈ 3.52 µM). The MIC ([10]; Table 9, inactivating enzyme ANT (4'), Mueller-Hinton agar, read-out: MIC) was greater than 100 mg/L, the MIC [11] was greater than 100 mg/L and the MIC ([12]; Table 9, inactivating enzyme APH(3')-I, Mueller-Hinton agar, read-out: MIC) was greater than 100 mg/L. The MIC [13] was 1.6 mg/L (≈ 3.52 µM), the MIC [14] was 0.8 mg/L (≈ 1.76 µM) and the MIC [15] was 6.3 mg/L (≈ 13.9 µM). It also gave an MIC [16] greater than 100 mg/L, an MIC [17] greater than 100 mg/L and an MIC [18] of 6.3 mg/L (≈ 13.9 µM). For the same molecule, the MIC [19] was 12.5 mg/L (≈ 27.5 µM), the MIC ([20]; Table 9, inactivating enzymes AAC(3)-I, APH(3')-II, Mueller-Hinton agar, read-out: MIC) was greater than 100 mg/L and the MIC [21] was 1.6 mg/L (≈ 3.52 µM). It also gave an MIC [22] of 1.6 mg/L (≈ 3.52 µM), an MIC [23] of 3.1 mg/L (≈ 6.82 µM) and an MIC ([24]; Table 9, inactivating enzyme AAC(3)-II, Mueller-Hinton agar, read-out: MIC) greater than 100 mg/L. The MIC [25] was 25 mg/L (≈ 55 µM), the MIC [26] was 3.1 mg/L (≈ 6.82 µM) and the MIC [27] was 0.4 mg/L (≈ 0.88 µM). The MIC [28] was 100 mg/L (≈ 220 µM) and the MIC [29] was 1.6 mg/L (≈ 3.52 µM).
